How the values were obtained:
Assay type in all cases: in vivo
Nilaparvata lugens = experiment: Rice brown plant hopper spray test on rice seedlings; details: adults on sprayed rice seedlings, after 72 hours, read-out: mortality in comparison with untreated controls
Method: (§1) General conditions: If not otherwise specified, the test solutions are prepared as follows:
(§2) The active compound is dissolved at the desired concentration in a mixture of 1:1 (vol:vol) distilled water: acetone. The test solution is prepared at the day of use.
(§3) Test solutions are prepared in general at different concentrations (wt/vol).
(§4) Rice seedlings are cleaned and washed 24 hours before spraying. The active compounds are formulated in 50:50 acetone:water (vol:vol) and 0.1% vol/vol surfactant (EL 620) is added. Potted rice seedlings are sprayed with 5 ml test solution, air dried, placed in cages and inoculated with 10 adults. Treated rice plants are kept at about 28-29° C. and relative humidity of about 50-60%. Percent mortality is recorded after 72 hours.

Dichromothrips corbetti = experiment: Orchid thrips floral-immersion test; details: adult thrips, 72 hours after treatment, read-out: mortality in comparison with untreated controls
Method: as §1, §2, §3
Dichromothrips corbetti adults used for bioassay are obtained from a colony maintained continuously under laboratory conditions. For testing purposes, the test compound is diluted in a 1:1 mixture of acetone:water (vol:vol), plus 0.01% vol/vol Alkamuls® EL 620 surfactant.
Thrips potency of each compound is evaluated by using a floral-immersion technique. Plastic petri dishes are used as test arenas. All petals of individual, intact orchid flowers are dipped into treatment solution and allowed to dry. Treated flowers are placed into individual petri dishes along with about 20 adult thrips. The petri dishes v then covered with lids. All test arenas are held under continuous light and a temperature of about 28° C. for duration of the assay. After 3 days, the numbers of live thrips are counted on each flower, and along inner walls of each petri dish. The percent mortality is recorded 72 hours after treatment.

Nephotettix virescens = experiment: Rice green leafhopper spray test on rice seedlings; details: adults on sprayed rice seedlings, after 72 hours, read-out: mortality in comparison with untreated controls
Method: as §1, §2, §3
as §4, with “(vol:vol),” for “(vol:vol)”

Measured: mortality at 500 ppm

Cn1c2[n+](c([O-])c(-c3ccccc3)c1=O)C(CC#N)CS2 (stereo not drawn) [Example C1, 3-(cyanomethyl)-8-methyl-7-oxo-6-phenyl-2,3-dihydrothiazolo[3,2-a]pyrimidin-4-ium-5-olate]
> 75%: all assays above

Source: patent US11542280B2, “Substituted pyrimidinium compounds and derivatives for combating animal pests” (BASF SE, priority 2017, dated 2023)
